Test results as given in patent publication US11231416B2, “Virus-like particle (VLP) based small molecule-protein interaction trap” (VIB VZW, priority 2015, dated 2022).

Assays:
IGF1R = target: T1, IGF1R (Homo sapiens, UniProt P08069); assay: Viral trapping in VLPs, MS analysis; format: binding
T1 construct: endogenous in cells; host or cells: HEK293T

INSR = target: T2, INSR (Homo sapiens, UniProt P06213); assay: Viral trapping in VLPs, MS analysis; format: binding
T2 construct: endogenous in cells; host or cells: HEK293T

NQO2 = target: T3, NQO2 (Homo sapiens, UniProt P16083); assay: Viral trapping in VLPs, MS analysis; format: binding
T3 construct: endogenous in cells; host or cells: HEK293T

APMAP = target: T4, APMAP (Homo sapiens, UniProt Q9HDC9); assay: Viral trapping in VLPs, MS analysis; format: binding; settings: all proteins (incl. low confidence identifications)
T4 construct: endogenous in cells; host or cells: HEK293T

BZW1 = target: T5, BZW1 (Homo sapiens, UniProt Q7L1Q6); assay: Viral trapping in VLPs, MS analysis; format: binding; settings: all proteins (incl. low confidence identifications)
T5 construct: endogenous in cells; host or cells: HEK293T

CAMKV = target: T6, CAMKV (Homo sapiens, UniProt Q8NCB2); assay: Viral trapping in VLPs, MS analysis; format: binding; settings: all proteins (incl. low confidence identifications)
T6 construct: endogenous in cells; host or cells: HEK293T

CTNNA2 = target: T7, CTNNA2 (Homo sapiens, UniProt P26232); assay: Viral trapping in VLPs, MS analysis; format: binding; settings: all proteins (incl. low confidence identifications)
T7 construct: endogenous in cells; host or cells: HEK293T

DYNC2H1 = target: T8, DYNC2H1 (Homo sapiens, UniProt Q8NCM8); assay: Viral trapping in VLPs, MS analysis; format: binding; settings: all proteins (incl. low confidence identifications)
T8 construct: endogenous in cells; host or cells: HEK293T

FKBP3 = target: T9, FKBP3 (Homo sapiens, UniProt Q00688); assay: Viral trapping in VLPs, MS analysis; format: binding; settings: all proteins (incl. low confidence identifications)
T9 construct: endogenous in cells; host or cells: HEK293T

GAK = target: T10, GAK (Homo sapiens, UniProt O14976); assay: Viral trapping in VLPs, MS analysis; format: binding; settings: all proteins (incl. low confidence identifications)
T10 construct: endogenous in cells; host or cells: HEK293T

GEMIN5 = target: T11, GEMIN5 (Homo sapiens, UniProt Q8TEQ6); assay: Viral trapping in VLPs, MS analysis; format: binding
T11 construct: endogenous in cells; host or cells: HEK293T

LMAN1 = target: T12, LMAN1 (Homo sapiens, UniProt P49257); assay: Viral trapping in VLPs, MS analysis; format: binding; settings: all proteins (incl. low confidence identifications)
T12 construct: endogenous in cells; host or cells: HEK293T

MBTPS1 = target: T13, MBTPS1 (Homo sapiens, UniProt Q14703); assay: Viral trapping in VLPs, MS analysis; format: binding; settings: all proteins (incl. low confidence identifications)
T13 construct: endogenous in cells; host or cells: HEK293T

MFI2 = target: T14, MFI2 (Homo sapiens, UniProt P08582); assay: Viral trapping in VLPs, MS analysis; format: binding; settings: all proteins (incl. low confidence identifications)
T14 construct: endogenous in cells; host or cells: HEK293T

MST1R = target: T15, MST1R (Homo sapiens, UniProt Q04912); assay: Viral trapping in VLPs, MS analysis; format: binding; settings: all proteins (incl. low confidence identifications)
T15 construct: endogenous in cells; host or cells: HEK293T

MYO1D = target: T16, MYO1D (Homo sapiens, UniProt O94832); assay: Viral trapping in VLPs, MS analysis; format: binding; settings: all proteins (incl. low confidence identifications)
T16 construct: endogenous in cells; host or cells: HEK293T

NEK2 = target: T17, NEK2 (Homo sapiens, UniProt P51955); assay: Viral trapping in VLPs, MS analysis; format: binding; settings: all proteins (incl. low confidence identifications)
T17 construct: endogenous in cells; host or cells: HEK293T

NT5C = target: T18, NT5C (Homo sapiens, UniProt Q8TCD5); assay: Viral trapping in VLPs, MS analysis; format: binding; settings: all proteins (incl. low confidence identifications)
T18 construct: endogenous in cells; host or cells: HEK293T

PPM1L = target: T19, PPM1L (Homo sapiens, UniProt Q5SGD2); assay: Viral trapping in VLPs, MS analysis; format: binding; settings: all proteins (incl. low confidence identifications)
T19 construct: endogenous in cells; host or cells: HEK293T

RCL = target: T20, RCL (Homo sapiens, UniProt O43598); assay: Viral trapping in VLPs, MS analysis; format: binding
T20 construct: endogenous in cells; host or cells: HEK293T

RPS6KA1 = target: T21, RPS6KA1 (Homo sapiens, UniProt Q15418); assay: Viral trapping in VLPs, MS analysis; format: binding; settings: all proteins (incl. low confidence identifications)
T21 construct: endogenous in cells; host or cells: HEK293T

TMEM30A = target: T22, TMEM30A (Homo sapiens, UniProt Q9NV96); assay: Viral trapping in VLPs, MS analysis; format: binding; settings: all proteins (incl. low confidence identifications)
T22 construct: endogenous in cells; host or cells: HEK293T

TMEM9 = target: T23, TMEM9 (Homo sapiens, UniProt Q9P0T7); assay: Viral trapping in VLPs, MS analysis; format: binding; settings: all proteins (incl. low confidence identifications)
T23 construct: endogenous in cells; host or cells: HEK293T

TMX1 = target: T24, TMX1 (Homo sapiens, UniProt Q9H3N1); assay: Viral trapping in VLPs, MS analysis; format: binding; settings: all proteins (incl. low confidence identifications)
T24 construct: endogenous in cells; host or cells: HEK293T

USP7 = target: T25, USP7 (Homo sapiens, UniProt Q93009); assay: Viral trapping in VLPs, MS analysis; format: binding; settings: all proteins (incl. low confidence identifications)
T25 construct: endogenous in cells; host or cells: HEK293T

YIPF5 = target: T26, YIPF5 (Homo sapiens, UniProt Q969M3); assay: Viral trapping in VLPs, MS analysis; format: binding; settings: all proteins (incl. low confidence identifications)
T26 construct: endogenous in cells; host or cells: HEK293T

ZNF827 = target: T27, ZNF827 (Homo sapiens, UniProt Q17R98); assay: Viral trapping in VLPs, MS analysis; format: binding; settings: all proteins (incl. low confidence identifications)
T27 construct: endogenous in cells; host or cells: HEK293T

HTRA3 = settings: all proteins (incl. low confidence identifications)
[1] = all proteins (incl. low confidence identifications)
[2] = proteins identified with >1 peptide (high confidence)

T1 sequence (P08069 31-1367): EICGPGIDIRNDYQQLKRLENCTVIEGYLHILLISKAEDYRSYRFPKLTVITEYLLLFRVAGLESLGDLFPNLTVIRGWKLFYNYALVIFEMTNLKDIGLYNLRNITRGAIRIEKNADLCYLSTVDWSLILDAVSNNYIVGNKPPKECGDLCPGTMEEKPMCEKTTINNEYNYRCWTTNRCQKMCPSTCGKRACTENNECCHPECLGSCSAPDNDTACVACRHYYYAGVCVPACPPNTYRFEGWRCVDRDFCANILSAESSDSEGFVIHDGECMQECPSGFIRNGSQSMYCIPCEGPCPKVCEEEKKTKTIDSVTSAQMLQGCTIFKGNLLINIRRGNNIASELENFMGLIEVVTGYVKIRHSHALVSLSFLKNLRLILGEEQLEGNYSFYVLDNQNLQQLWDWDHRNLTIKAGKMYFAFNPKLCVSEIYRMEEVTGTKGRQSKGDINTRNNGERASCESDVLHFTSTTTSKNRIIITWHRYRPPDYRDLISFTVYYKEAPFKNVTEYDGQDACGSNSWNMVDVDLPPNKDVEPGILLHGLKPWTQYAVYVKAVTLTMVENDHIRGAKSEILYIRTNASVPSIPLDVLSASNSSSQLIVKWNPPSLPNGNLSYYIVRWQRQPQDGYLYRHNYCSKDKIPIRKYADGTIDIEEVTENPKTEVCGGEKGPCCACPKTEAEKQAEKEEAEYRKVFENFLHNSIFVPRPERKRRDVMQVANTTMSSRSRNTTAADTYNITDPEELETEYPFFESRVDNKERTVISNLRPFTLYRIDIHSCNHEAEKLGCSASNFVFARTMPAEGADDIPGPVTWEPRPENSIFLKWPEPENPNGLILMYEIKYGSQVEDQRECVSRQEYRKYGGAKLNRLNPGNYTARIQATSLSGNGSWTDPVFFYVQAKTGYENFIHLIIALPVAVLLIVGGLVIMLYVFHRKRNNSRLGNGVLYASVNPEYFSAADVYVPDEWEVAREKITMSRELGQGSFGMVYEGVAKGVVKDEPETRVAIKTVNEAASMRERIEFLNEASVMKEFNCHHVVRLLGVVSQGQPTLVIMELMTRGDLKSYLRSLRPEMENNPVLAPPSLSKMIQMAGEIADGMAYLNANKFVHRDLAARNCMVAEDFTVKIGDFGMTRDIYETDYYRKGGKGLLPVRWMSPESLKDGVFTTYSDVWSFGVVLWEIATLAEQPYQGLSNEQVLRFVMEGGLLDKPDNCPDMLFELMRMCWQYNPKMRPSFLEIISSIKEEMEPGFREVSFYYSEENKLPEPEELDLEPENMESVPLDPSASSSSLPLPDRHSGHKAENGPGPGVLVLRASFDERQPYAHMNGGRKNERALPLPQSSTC
T2 sequence (P06213 28-1382): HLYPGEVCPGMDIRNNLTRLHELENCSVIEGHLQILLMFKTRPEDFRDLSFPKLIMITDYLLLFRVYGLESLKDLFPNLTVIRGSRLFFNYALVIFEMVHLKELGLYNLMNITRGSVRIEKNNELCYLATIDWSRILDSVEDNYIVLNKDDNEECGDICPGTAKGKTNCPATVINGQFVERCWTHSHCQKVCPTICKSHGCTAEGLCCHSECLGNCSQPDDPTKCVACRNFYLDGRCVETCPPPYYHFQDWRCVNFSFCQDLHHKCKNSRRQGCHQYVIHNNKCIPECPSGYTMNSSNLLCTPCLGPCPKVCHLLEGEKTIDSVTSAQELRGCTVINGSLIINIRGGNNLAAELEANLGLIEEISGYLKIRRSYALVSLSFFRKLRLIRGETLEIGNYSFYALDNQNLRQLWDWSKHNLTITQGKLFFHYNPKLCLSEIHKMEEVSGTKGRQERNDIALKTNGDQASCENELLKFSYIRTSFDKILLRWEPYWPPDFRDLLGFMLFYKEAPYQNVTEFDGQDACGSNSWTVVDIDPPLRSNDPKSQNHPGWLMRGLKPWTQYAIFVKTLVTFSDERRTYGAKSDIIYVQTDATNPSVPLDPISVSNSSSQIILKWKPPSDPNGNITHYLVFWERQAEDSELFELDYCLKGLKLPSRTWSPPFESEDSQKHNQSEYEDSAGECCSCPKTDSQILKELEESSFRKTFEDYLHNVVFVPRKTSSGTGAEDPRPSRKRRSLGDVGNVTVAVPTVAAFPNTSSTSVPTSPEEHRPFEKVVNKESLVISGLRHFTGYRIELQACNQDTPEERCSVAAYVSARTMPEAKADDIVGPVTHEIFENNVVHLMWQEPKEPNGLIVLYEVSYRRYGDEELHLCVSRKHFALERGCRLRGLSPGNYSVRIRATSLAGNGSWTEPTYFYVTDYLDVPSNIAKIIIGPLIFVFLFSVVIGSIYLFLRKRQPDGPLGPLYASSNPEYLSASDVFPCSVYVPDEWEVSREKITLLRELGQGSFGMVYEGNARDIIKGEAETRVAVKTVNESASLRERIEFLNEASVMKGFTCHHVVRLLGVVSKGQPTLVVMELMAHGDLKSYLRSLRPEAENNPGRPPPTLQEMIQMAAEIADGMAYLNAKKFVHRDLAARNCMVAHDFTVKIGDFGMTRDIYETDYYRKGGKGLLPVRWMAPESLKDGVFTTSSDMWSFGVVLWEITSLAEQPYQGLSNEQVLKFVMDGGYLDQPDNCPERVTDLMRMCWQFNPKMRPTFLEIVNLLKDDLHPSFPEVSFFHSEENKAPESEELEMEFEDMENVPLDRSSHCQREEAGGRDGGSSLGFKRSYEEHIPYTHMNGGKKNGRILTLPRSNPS
T20 sequence (O43598 whole entry): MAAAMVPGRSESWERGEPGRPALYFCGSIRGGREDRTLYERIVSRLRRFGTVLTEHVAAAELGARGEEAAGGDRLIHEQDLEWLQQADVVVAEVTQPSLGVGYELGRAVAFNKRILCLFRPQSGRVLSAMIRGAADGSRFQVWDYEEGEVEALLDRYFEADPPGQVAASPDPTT
T11 sequence (Q8TEQ6 whole entry): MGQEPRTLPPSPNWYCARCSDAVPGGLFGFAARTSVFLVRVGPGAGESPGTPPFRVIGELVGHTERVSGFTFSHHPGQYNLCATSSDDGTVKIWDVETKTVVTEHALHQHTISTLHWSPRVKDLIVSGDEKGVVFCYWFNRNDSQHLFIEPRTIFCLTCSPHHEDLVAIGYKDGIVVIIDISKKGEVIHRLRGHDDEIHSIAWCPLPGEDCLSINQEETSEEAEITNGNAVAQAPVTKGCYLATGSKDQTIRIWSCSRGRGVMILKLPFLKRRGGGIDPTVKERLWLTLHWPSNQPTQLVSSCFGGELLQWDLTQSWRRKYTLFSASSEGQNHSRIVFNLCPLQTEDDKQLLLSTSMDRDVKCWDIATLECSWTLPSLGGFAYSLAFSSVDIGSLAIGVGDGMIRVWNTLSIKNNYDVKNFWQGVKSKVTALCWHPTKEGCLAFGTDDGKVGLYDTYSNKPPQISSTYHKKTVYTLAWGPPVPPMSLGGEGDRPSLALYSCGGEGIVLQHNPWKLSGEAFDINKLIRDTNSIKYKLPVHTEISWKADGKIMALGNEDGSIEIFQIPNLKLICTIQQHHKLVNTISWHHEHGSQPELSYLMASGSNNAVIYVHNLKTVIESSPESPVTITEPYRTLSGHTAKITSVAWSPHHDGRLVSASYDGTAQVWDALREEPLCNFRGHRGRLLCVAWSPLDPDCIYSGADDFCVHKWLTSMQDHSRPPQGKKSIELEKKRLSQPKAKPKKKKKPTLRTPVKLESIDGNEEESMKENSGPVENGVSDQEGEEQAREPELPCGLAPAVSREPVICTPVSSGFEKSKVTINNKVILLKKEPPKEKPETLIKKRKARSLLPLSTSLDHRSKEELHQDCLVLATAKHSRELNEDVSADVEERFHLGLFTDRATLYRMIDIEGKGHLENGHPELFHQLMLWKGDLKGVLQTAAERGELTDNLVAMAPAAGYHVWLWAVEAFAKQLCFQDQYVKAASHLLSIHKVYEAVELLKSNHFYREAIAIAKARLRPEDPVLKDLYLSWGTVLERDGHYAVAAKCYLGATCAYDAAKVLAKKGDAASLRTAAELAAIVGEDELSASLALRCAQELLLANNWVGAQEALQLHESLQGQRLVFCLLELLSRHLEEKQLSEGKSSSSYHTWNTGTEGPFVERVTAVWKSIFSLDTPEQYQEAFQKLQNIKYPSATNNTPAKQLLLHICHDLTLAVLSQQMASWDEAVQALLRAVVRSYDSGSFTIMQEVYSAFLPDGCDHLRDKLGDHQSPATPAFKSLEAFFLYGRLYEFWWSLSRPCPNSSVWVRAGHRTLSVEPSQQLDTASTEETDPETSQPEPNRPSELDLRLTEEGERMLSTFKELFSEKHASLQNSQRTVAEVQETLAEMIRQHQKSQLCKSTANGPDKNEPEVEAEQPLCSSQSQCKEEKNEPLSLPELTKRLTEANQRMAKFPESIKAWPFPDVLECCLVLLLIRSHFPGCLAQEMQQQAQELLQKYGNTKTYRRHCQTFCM
T3 sequence (P16083 whole entry): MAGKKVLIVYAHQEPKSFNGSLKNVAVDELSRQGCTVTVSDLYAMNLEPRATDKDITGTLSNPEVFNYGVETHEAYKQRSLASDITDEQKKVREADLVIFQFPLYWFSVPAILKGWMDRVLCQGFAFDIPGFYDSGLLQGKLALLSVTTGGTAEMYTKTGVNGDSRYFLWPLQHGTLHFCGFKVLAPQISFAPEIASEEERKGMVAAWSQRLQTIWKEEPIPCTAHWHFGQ
T12 sequence (P49257 31-510): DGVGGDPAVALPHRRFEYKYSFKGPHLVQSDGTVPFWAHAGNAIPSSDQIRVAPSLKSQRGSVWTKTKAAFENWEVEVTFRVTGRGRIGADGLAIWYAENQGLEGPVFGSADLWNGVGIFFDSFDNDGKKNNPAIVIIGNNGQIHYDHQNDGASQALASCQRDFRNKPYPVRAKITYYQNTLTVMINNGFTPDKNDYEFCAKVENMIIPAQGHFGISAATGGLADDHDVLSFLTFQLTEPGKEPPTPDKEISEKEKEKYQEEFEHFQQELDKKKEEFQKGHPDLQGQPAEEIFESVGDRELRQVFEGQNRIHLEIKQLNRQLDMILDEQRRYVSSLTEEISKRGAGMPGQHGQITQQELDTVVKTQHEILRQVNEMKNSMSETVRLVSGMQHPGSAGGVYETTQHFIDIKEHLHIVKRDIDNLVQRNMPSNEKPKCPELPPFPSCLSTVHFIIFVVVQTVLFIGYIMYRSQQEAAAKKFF

## CN(Cc1cnc2nc(N)nc(N)c2n1)c1ccc(C(=O)NC(CCC(=O)NCCOCCOCCOCCOCCOCCn2cc(CN3CCN(c4ccc(Nc5nc(NC6CCCCC6)c6nc[nH]c6n5)cc4)CC3)nn2)C(=O)O)cc1 (stereo not drawn) [MTX-PEG6-reversine]
IGF1R; [1]
  Recurrence (x/2): 2 x/2
IGF1R; [2]
  Recurrence (x/2): 2 x/2
INSR; [1]
  Recurrence (x/2): 2 x/2
INSR; [2]
  Recurrence (x/2): 2 x/2
NQO2; [1]
  Recurrence (x/2): 2 x/2
NQO2; [2]
  Recurrence (x/2): 1 x/2
APMAP
  Recurrence (x/2): 1 x/2
BZW1
  Recurrence (x/2): 1 x/2
CAMKV
  Recurrence (x/2): 1 x/2
CTNNA2
  Recurrence (x/2): 1 x/2
DYNC2H1
  Recurrence (x/2): 1 x/2
FKBP3
  Recurrence (x/2): 1 x/2
GAK
  Recurrence (x/2): 1 x/2
GEMIN5; [1]
  Recurrence (x/2): 1 x/2
GEMIN5; [2]
  Recurrence (x/2): 1 x/2
LMAN1
  Recurrence (x/2): 1 x/2
MBTPS1
  Recurrence (x/2): 1 x/2
MFI2
  Recurrence (x/2): 1 x/2
MST1R
  Recurrence (x/2): 1 x/2
MYO1D
  Recurrence (x/2): 1 x/2
NEK2
  Recurrence (x/2): 1 x/2
NT5C
  Recurrence (x/2): 1 x/2
PPM1L
  Recurrence (x/2): 1 x/2
RCL; [1]
  Recurrence (x/2): 1 x/2
RCL; [2]
  Recurrence (x/2): 1 x/2
RPS6KA1
  Recurrence (x/2): 1 x/2
TMEM30A
  Recurrence (x/2): 1 x/2
TMEM9
  Recurrence (x/2): 1 x/2
TMX1
  Recurrence (x/2): 1 x/2
USP7
  Recurrence (x/2): 1 x/2
YIPF5
  Recurrence (x/2): 1 x/2
ZNF827
  Recurrence (x/2): 1 x/2
HTRA3
  Recurrence (x/2): 1 x/2
